In US7452876B2, “Cyclopropyl fused indolobenzazepine HCV NS5B inhibitors” (Bristol-Myers Squibb Company, priority 2006, dated 2008):
Each block holds one compound with its values, some of them ahead of it.

How the values were obtained:
[1] = target: T1, HCV NS5B RdRp genotype 1b (Hepatitis C virus genotype 1b, UniProt Q9WMX2); test: Modified HCV NS5B RdRp enzyme assay (preincubation protocol); type: biochemical
T1 construct: The protein was expressed with an 18 amino acid C-terminal truncation to enhance the solubility; made in house; host or cells: E. coli BL21 (DE3), pET21a
T1 sequence (Q9WMX2 2420-2992): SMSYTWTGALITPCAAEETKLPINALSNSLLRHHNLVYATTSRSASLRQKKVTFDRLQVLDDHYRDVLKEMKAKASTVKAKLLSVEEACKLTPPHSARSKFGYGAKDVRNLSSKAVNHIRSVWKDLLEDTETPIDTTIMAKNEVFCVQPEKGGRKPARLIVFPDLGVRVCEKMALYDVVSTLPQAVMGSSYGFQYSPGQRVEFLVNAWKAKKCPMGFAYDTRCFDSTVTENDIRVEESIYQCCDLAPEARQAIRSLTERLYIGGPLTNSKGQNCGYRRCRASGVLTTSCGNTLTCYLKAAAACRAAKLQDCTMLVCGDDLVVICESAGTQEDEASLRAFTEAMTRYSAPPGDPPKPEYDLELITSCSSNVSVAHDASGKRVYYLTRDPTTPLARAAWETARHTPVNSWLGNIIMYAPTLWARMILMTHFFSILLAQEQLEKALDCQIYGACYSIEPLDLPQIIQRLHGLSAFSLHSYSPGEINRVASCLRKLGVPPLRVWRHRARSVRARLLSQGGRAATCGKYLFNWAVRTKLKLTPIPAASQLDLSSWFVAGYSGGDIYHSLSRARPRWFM
Procedure: HCV NS5B RdRp cloning, expression, and purification. The cDNA encoding the NS5B protein of HCV, genotype 1b, was cloned into the pET21a expression vector. The protein was expressed with an 18 amino acid C-terminal truncation to enhance the solubility. The E. coli competent cell line BL21 (DE3) was used for expression of the protein. Cultures were grown at 37° C. for ˜4 hours until the cultures reached an optical density of 2.0 at 600 nm. The cultures were cooled to 20° C. and induced with 1 mM IPTG. Fresh ampicillin was added to a final concentration of 50 μg/ml and the cells were grown overnight at 20° C.
Cell pellets (3L) were lysed for purification to yield 15-24 mgs of purified NS5B. The lysis buffer consisted of 20 mM Tris-HCl, pH 7.4, 500 mM NaCl, 0.5% triton X-100, 1 mM DTT, 1 mM EDTA, 20% glycerol, 0.5 mg/ml lysozyme, 10 mM MgCl2, 15 ug/ml deoxyribonuclease I, and Complete TM protease inhibitor tablets (Roche). After addition of the lysis buffer, frozen cell pellets were resuspended using a tissue homogenizer. To reduce the viscosity of the sample, aliquots of the lysate were sonicated on ice using a microtip attached to a Branson sonicator. The sonicated lysate was centrifuged at 100,000×g for 1 hr at 4° C. and filtered through a 0.2 μm filter unit (Corning).
The protein was purified using three sequential chromatography steps: Heparin sepharose CL-6B, polyU sepharose 4B, and Hitrap SP sepharose (Pharmacia). The chromatography buffers were identical to the lysis buffer but contained no lysozyme, deoxyribonuclease I, MgCl2 or protease inhibitor and the NaCl concentration of the buffer was adjusted according to the requirements for charging the protein onto the column. Each column was eluted with a NaCl gradient which varied in length from 5-50 column volumes depending on the column type. After the final chromatography step, the resulting purity of the enzyme is >90% based on SDS-PAGE analysis. The enzyme was aliquoted and stored at −80° C.
Standard HCVNS5B RdRp enzyme assay. HCV RdRp genotype 1b assays were run in a final volume of 60 μl in 96 well plates (Costar 3912). The assay buffer is composed of 20 mM Hepes, pH 7.5, 2.5 mM KCl, 2.5 mM MgCl2, 1 mM DTT, 1.6 U RNAse inhibitor (Promega N2515), 0.1 mg/ml BSA (Promega R3961), and 2% glycerol. All compounds were serially diluted (3-fold) in DMSO and diluted further in water such that the final concentration of DMSO in the assay was 2%. HCV RdRp genotype 1b enzyme was used at a final concentration of 28 nM. A polyA template was used at 6 nM, and a biotinylated oligo-dT 12 primer was used at 180 nM final concentration. Template was obtained commercially (Amersham 27-4110). Biotinylated primer was prepared by Sigma Genosys. 3H-UTP was used at 0.6 μCi (0.29 μM total UTP). Reactions were initiated by the addition of enzyme, incubated at 30° C. for 60 min, and stopped by adding 25 μl of 50 mM EDTA containing SPA beads (4 μg/μl, Amersham RPNQ 0007). Plates were read on a Packard Top Count NXT after >1 hr incubation at room temperature.
Modified HCVNS5B RdRp enzyme assay. A modified enzyme assay was performed essentially as described for the standard enzyme assay except for the following: The biotinylated oligo dT12 primer was precaptured on streptavidin-coated SPA beads by mixing primer and beads in assay buffer and incubating at room temperature for one hour. Unbound primer was removed after centrifugation. The primer-bound beads were resuspended in 20 mM Hepes buffer, pH 7.5 and used in the assay at final concentrations of 20 nM primer and 0.67 μg/μl beads. Order of addition in the assay: enzyme (14 nM) was added to diluted compound followed by the addition of a mixture of template (0.2 nM), 3H-UTP (0.6 μCi, 0.29 μM), and primer-bound beads, to initiate the reaction; concentrations given are final. Reactions were allowed to proceed for 4 hours at 30° C.
IC50 values for compounds were determined using seven different [I]. […]

[2] = test system: HCV replicon cells; test: HCV replicon FRET assay; type: cell-based; conditions: Hepatitis C virus
Description: FRET Assay Preparation. To perform the HCV FRET screening assay, 96-well cell culture plates were used. The FRET peptide (Anaspec, Inc.) (Taliani et al., Anal. Biochem. 1996, 240, 60-67) contains a fluorescence donor, EDANS, near one end of the peptide and an acceptor, DABCYL, near the other end. The fluorescence of the peptide is quenched by […] resonance energy transfer (RET) between the donor and the acceptor, but as the NS3 protease cleaves the peptide the products are released from RET quenching and the fluorescence of the donor becomes apparent. The assay reagent was made as follows: 5× cell Luciferase cell culture lysis reagent from Promega (#E153A) diluted to 1× with dH2O, NaCl added to 150 mM final, the FRET peptide diluted to 20 uM final from a 2 mM stock.
To prepare plates, HCV replicon cells, with or without a Renilla luciferase reporter gene, were trypsinized and placed into each well of a 96-well plate with titrated test compounds added in columns 3 through 12; columns 1 and 2 contained a control compound (HCV protease inhibitor), and the bottom row contained cells without compound. The plates were then placed in a CO2 incubator at 37° C.
Assays. Subsequent to addition of the test compounds described above (FRET Assay Preparation), at various times the plate was removed and Alamar blue solution (Trek Diagnostics, #00-100) was added per well as a measure of cellular toxicity. After reading in a Cytoflour 4000 instrument (PE Biosystems), plates were rinsed with PBS and then used for FRET assay by the addition of 30 ul of the FRET peptide assay reagent described above (FRET Assay Preparation) per well. The plate was then placed into the Cytoflour 4000 instrument which had been set to 340 excite/490 emission, automatic mode for 20 cycles and the plate read in a kinetic mode. Typically, the signal to noise using an endpoint analysis after the reads was at least three-fold. Alternatively, after Alamar blue reading, plates were rinsed with PBS, 50 ul of DMEM (high glucose) without phenol red was added and plates were then used for luciferase assay using the Promega Dual-Glo Luciferase Assay System.
Compound analysis was determined by quantification of the relative HCV replicon inhibition and the relative cytotoxicity values. To calculate cytoxicity values, the average Alamar Blue fluorescence signals from the control wells were set as 100% non-toxic. The individual signals in each of the compound test wells were then divided by the average control signal and multiplied by 100% to determine […]. To calculate the HCV replicon inhibition values, an average background value was obtained from the two wells containing the highest amount of HCV protease inhibitor at the end of the assay period. These numbers were similar to those obtained from naïve Huh-7 cells.
The background numbers were then subtracted from the average signal obtained from the control wells and this number was used as 100% activity. The individual signals in each of the compound test wells were then divided by the averaged control values after background subtraction and multiplied by 100% to determine percent activity. EC50 values for a protease inhibitor titration were calculated as the concentration which caused a 50% reduction in FRET or luciferase activity. The two numbers generated for the compound plate, percent cytoxicity and percent activity were used to determine compounds of interest for further analysis.

Structure (SMILES): COc1ccc2c(c1)C1CC1(NC(=O)N(C)CCN(C)C)Cn1c-2c(C2CCCCC2)c2ccc(C(=O)NS(=O)(=O)N(C)C)cc21 (stereo not shown)
IC50 [1]: 20 to 1000 nM
EC50 [2]: 20 to 1000 nM

IC50 [1]: 20 to 1000 nM
Structure (SMILES): CNC12CC1c1cc(OC)ccc1-c1c(C3CCCCC3)c3ccc(C(=O)NS(=O)(=O)N(C)C)cc3n1C2 (stereo not shown)

Structure (SMILES): COc1ccc2c(c1)C1CC1(N)Cn1c-2c(C2CCCCC2)c2ccc(C(=O)NS(=O)(=O)N(C)C)cc21 (stereo not shown)
IC50 [1]: 20 to 1000 nM
EC50 [2]: 20 to 1000 nM

Structure (SMILES): COc1ccc2c(c1)C1CC1(NC(=O)N1C[C@@H](C)O[C@@H](C)C1)Cn1c-2c(C2CCCCC2)c2ccc(C(=O)NS(=O)(=O)N(C)C)cc21 (stereo partly shown)
IC50 [1]: 20 to 1000 nM
EC50 [2]: 70 to 1000 nM

Structure (SMILES): COc1ccc2c(c1)C1CC1(NC(=O)N(C)CC(N)=O)Cn1c-2c(C2CCCCC2)c2ccc(C(=O)NS(=O)(=O)N(C)C)cc21 (stereo not shown)
IC50 [1]: 20 to 1000 nM
EC50 [2]: 20 to 1000 nM

Structure (SMILES): O=C(O)c1ccc2c(C3CCCCC3)c3n(c2c1)CC1(NC(=O)N2CCOCC2)CC1c1ccccc1-3 (stereo not shown)
IC50 [1]: 20 to 1000 nM
EC50 [2]: 70 to 1000 nM

Structure (SMILES): COc1ccc2c(c1)C1CC1(NC(=O)N1CCOCC1)Cn1c-2c(C2CCCCC2)c2ccc(C(=O)O)cc21 (stereo not shown)
IC50 [1]: 20 to 1000 nM
EC50 [2]: 70 to 1000 nM

Structure (SMILES): COc1ccc2c(c1)C1CC1(NC(=O)N(C)CC1CCOCC1)Cn1c-2c(C2CCCCC2)c2ccc(C(=O)NS(=O)(=O)N(C)C)cc21 (stereo not shown)
IC50 [1]: 20 to 1000 nM
EC50 [2]: 20 to 1000 nM

Structure (SMILES): COc1ccc2c(c1)C1CC1(NC(=O)OC(C)(C)C)Cn1c-2c(C2CCCCC2)c2ccc(C(=O)NS(=O)(=O)N(C)C)cc21 (stereo not shown)
IC50 [1]: 20 to 1000 nM
EC50 [2]: 20 to 1000 nM

Structure (SMILES): COc1ccc2c(c1)C1CC1(NC(=O)N1CC(OC)C1)Cn1c-2c(C2CCCCC2)c2ccc(C(=O)NS(=O)(=O)N(C)C)cc21 (stereo not shown)
IC50 [1]: 20 to 1000 nM
EC50 [2]: 20 to 1000 nM

Structure (SMILES): COc1ccc2c(c1)[C@@H]1C[C@]1(N)Cn1c-2c(C2CCCCC2)c2ccc(C(=O)NS(=O)(=O)N(C)C)cc21
IC50 [1]: 20 to 1000 nM
EC50 [2]: 20 to 1000 nM

Structure (SMILES): COc1ccc2c(c1)C1CC1(NC(=O)N1C[C@@H](C)N(C)[C@@H](C)C1)Cn1c-2c(C2CCCCC2)c2ccc(C(=O)NS(=O)(=O)N(C)C)cc21 (stereo partly shown)
IC50 [1]: 20 to 1000 nM
EC50 [2]: 20 to 1000 nM

Structure (SMILES): COc1ccc2c(c1)[C@@H]1C[C@]1(NC(=O)OC(C)(C)C)Cn1c-2c(C2CCCCC2)c2ccc(C(=O)NS(=O)(=O)N(C)C)cc21
IC50 [1]: 20 to 1000 nM
EC50 [2]: 20 to 1000 nM

IC50 [1]: 20 to 1000 nM
Structure (SMILES): COC(=O)c1ccc2c(C3CCCCC3)c3n(c2c1)CC1(NC(=O)N2CCOCC2)CC1c1cc(OC)ccc1-3 (stereo not shown)

IC50 [1]: 20 to 1000 nM
Structure (SMILES): COC(=O)c1ccc2c(C3CCCCC3)c3n(c2c1)CC1(NC(=O)N2CCOCC2)CC1c1ccccc1-3 (stereo not shown)

Structure (SMILES): COCCNC(=O)CN(C)C(=O)NC12CC1c1cc(OC)ccc1-c1c(C3CCCCC3)c3ccc(C(=O)NS(=O)(=O)N(C)C)cc3n1C2 (stereo not shown)
IC50 [1]: 20 to 1000 nM
EC50 [2]: 20 to 1000 nM

Structure (SMILES): COc1ccc2c(c1)C1CC1(NC(=O)N(C)CC(=O)N1CCN(C)CC1)Cn1c-2c(C2CCCCC2)c2ccc(C(=O)NS(=O)(=O)N(C)C)cc21 (stereo not shown)
IC50 [1]: 20 to 1000 nM
EC50 [2]: 20 to 1000 nM
